Data published in patent US12421276B2 (priority 2016, dated 2025).

Key:
[1] = test system: Caco-2 cells; assay: Caco-2 permeability study with or without P-gp inhibitor GF120918; conditions: for Abs. Quotient: (Papp A-B with inhibitor − without inhibitor)/Papp A-B with inhibitor; for Caco-2 Cells Permeability Recovery Rate: 1 hr, pH 7.4
Description: Buffer=HBSS, pH 7.4 with 5 mM HEPES
Caco-2 cell plates were obtained commercially and were maintained for 21 days at 37° C. with 5% CO2. Cells were washed with Hank's Balanced Salt Solution (HBSS) 30 min before starting the experiment. Test compound solutions were prepared by diluting from DMSO stock into HBSS buffer in the presence or absence of 10 μM of P-gp inhibitor GF120918. The final DMSO concentration is 0.2%. Prior to each experiment, cell monolayer integrity was verified by transendothelial electrical resistance (TEER). Transport experiment was initiated by adding test compounds to the apical (75 μL) side. Transport plates were incubated at 37° C. in a humidified incubator with 5% CO2. Samples were taken from the donor and acceptor compartments after 1 hr and analyzed by liquid chromatography with tandem mass spectrometry (LC/MS/MS).
Apparent permeability (Papp) values were calculated using the following equation: Papp=(dQ/dt)/A/C0
where dQ/dt is the initial rate of amount of test compound transported across cell monolayer, A is the surface area of the filter membrane, and C0 is the initial concentration of the test compound. C0 is calculated for each condition using a 4-point calibration curve.
Absorption quotient between the two assay conditions was calculated by the following equation:
Absorption quotient (AQ)=(Papp, A-B with inhibitor−Papp, A-B without inhibitor)/Papp, A-B with inhibitor where Papp, A-B with inhibitor and Papp, A-B without inhibitor represent the apparent permeability of test compound from the apical to basal side of the cellular monolayer in the presence and absence of 10 μM P-gp inhibitor GF120918, respectively.
All samples were analyzed on LC/MS/MS using an AB Sciex API 4000 instrument, coupled to a Shimadzu LC-20AD LC Pump system. Analytical samples were separated using a Waters Atlantis T3 dC18 reverse phase HPLC column (10 mm×2.1 mm) at a flow rate of 0.5 mL/min. The mobile phase consisted of 0.1% formic acid in water (solvent A) and 0.1% formic acid in acetonitrile (solvent B).

[2] = Metabolic stability in simulated intestinal fluid (SIF), pH 6.8, with or without pancreatin; type: in vitro ADME; conditions: 5 μM, 37° C.
Method in brief: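 Compounds at 5 μM incubated at 37 °C in freshly made SIF pH 6.8 (NaOH/NaH2PO4/NaCl), with or without 1% pancreatin. Remaining parent measured by LC/MS/MS against 0-min control; t½ derived from elimination rate constant (−slope) of semi-log % remaining vs time.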

[3] = +GF120918 (10 μM), 10 μM compound

Structure (SMILES) | Abs. Quotient [1] | Caco-2 Cells Permeability Recovery Rate [1, 3] [%] | Caco-2 Cells Permeability Recovery Rate ([1]; −GF120918, 10 μM compound) [%] | SIF Stability (pH 6.8) Half-Life (min) ([2]; +Pancreatin (1%)) | SIF Stability (pH 6.8) 0 min ([2]; +Pancreatin (1%)) [%] | SIF Stability (pH 6.8) 60 min ([2]; +Pancreatin (1%)) [%] | SIF Stability (pH 6.8) 120 min ([2]; +Pancreatin (1%)) [%] | SIF Stability (pH 6.8) 240 min ([2]; +Pancreatin (1%)) [%] | SIF Stability (pH 6.8) Half-Life (min) ([2]; −Pancreatin) | SIF Stability (pH 6.8) 0 min ([2]; −Pancreatin) [%] | SIF Stability (pH 6.8) 60 min ([2]; −Pancreatin) [%] | SIF Stability (pH 6.8) 120 min ([2]; −Pancreatin) [%] | SIF Stability (pH 6.8) 240 min ([2]; −Pancreatin) [%]
CCCCCC(=O)NC(Cc1ccc(OC(=O)N2CCN(C)CC2)cc1)C(=O)NC(C(=O)NCCCCCC(N)=O)C(C)CC (stereo not drawn) [Compound A20] | 0.88 | 90 | 71 | 86.6 | 100 | 62 | 54 | 61 | 95.4 | 100 | 65 | 57 | 51
CCCCCC(=O)NC(Cc1ccc(OC(=O)NCCN(C)C)cc1)C(=O)NC(C(=O)NCCCCCC(N)=O)C(C)CC (stereo not drawn) [Compound A21] | 0.50 | 84 | 84 | 3006.4 | 100 | 95 | 97 | 93 |  |  |  |  | 
